Reference: ChEMBL document CHEMBL1201862, “PubChem BioAssay data set” (2004)
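1) Cells in 96-well plates. 2) Compound, 48 h, 5 concentrations. 3) Linear interpolation between surrounding doses. 4) Unreached endpoint = highest concentration. The concentration for 50% growth inhibition is given as GI50.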 Active and inactive are the calls of the source. Rule as the data show it: active = GI50 up to about 1.1 µM and inactive = higher.

Legend:
Assay in all cases: inhibition of tumour cell growth, NCI panel, 48 h
786-0 = test system: 786-0
A498 = test system: A498
A549 = test system: A549
ACHN = test system: ACHN
BT-549 = test system: BT-549
CAKI-1 = test system: CAKI-1
CCRF-CEM = test system: CCRF-CEM
COLO 205 = test system: COLO 205
DU-145 = test system: DU-145
EKVX = test system: EKVX
HCT-116 = test system: HCT-116
HCT-15 = test system: HCT-15
HL-60 = test system: HL-60
HOP-62 = test system: HOP-62
HOP-92 = test system: HOP-92
HT-29 = test system: HT-29
Hs-578T = test system: Hs-578T
IGROV-1 = test system: IGROV-1
K562 = test system: K562
KM12 = test system: KM12
LOX IMVI = test system: LOX IMVI
M14 = test system: M14
MCF7 = test system: MCF7
MDA-MB-231 = test system: MDA-MB-231
MDA-MB-435 = test system: MDA-MB-435
MDA-N = test system: MDA-N
MOLT-4 = test system: MOLT-4
Malme-3M = test system: Malme-3M
NCI-H226 = test system: NCI-H226
NCI-H23 = test system: NCI-H23
NCI-H460 = test system: NCI-H460
NCI-H522 = test system: NCI-H522
NCI/ADR-RES = test system: NCI/ADR-RES
OVCAR-3 = test system: OVCAR-3
OVCAR-4 = test system: OVCAR-4
OVCAR-5 = test system: OVCAR-5
OVCAR-8 = test system: OVCAR-8
PC-3 = test system: PC-3
RPMI-8226 = test system: RPMI-8226
RXF 393 = test system: RXF 393
SF-268 = test system: SF-268
SF-295 = test system: SF-295
SF-539 = test system: SF-539
SK-MEL-28 = test system: SK-MEL-28
SK-MEL-2 = test system: SK-MEL-2
SK-MEL-5 = test system: SK-MEL-5
SK-OV-3 = test system: SK-OV-3
SN12C = test system: SN12C
SNB-19 = test system: SNB-19
SNB-75 = test system: SNB-75
SR = test system: SR
SW-620 = test system: SW-620
T47D = test system: T47D
TK-10 = test system: TK-10
U-251 = test system: U-251
UACC-257 = test system: UACC-257
UACC-62 = test system: UACC-62
UO-31 = test system: UO-31
HCC 2998 = test system: HCC 2998

`Cc1cc2cc3cc(C)c(N)cc3nc2cc1N` [ACRIDINE YELLOW] was tested, and the GI50 (786-0) was 0.416 µM (active), the GI50 (A498) was 0.619 µM (active) and the GI50 (A549) was 0.509 µM (active). The GI50 (ACHN) was 0.365 µM (active), the GI50 (BT-549) was 5.52 µM (inactive) and the GI50 (CAKI-1) was 0.791 µM (active). The GI50 (CCRF-CEM) was 0.383 µM (active), the GI50 (COLO 205) was 0.757 µM (active) and the GI50 (DU-145) was 0.647 µM (active). For the same compound, the GI50 (EKVX) was 0.535 µM (active), the GI50 (HCT-116) was 0.208 µM (active) and the GI50 (HCT-15) was 0.597 µM. The GI50 (HL-60) was 0.789 µM (active), the GI50 (HOP-62) was 0.465 µM (active) and the GI50 (HOP-92) was 0.726 µM (active). For the same compound, the GI50 (HT-29) was 0.359 µM (active), the GI50 (Hs-578T) was 1.75 µM (inactive) and the GI50 (IGROV-1) was 0.244 µM (active). For the same compound, the GI50 (K562) was 0.687 µM (active), the GI50 (KM12) was 0.508 µM (active) and the GI50 (LOX IMVI) was 0.478 µM (active). The GI50 (M14) was 3.53 µM (inactive), the GI50 (MCF7) was 0.475 µM (active) and the GI50 (MDA-MB-231) was 0.211 µM (active). The GI50 (MDA-MB-435) was 4.4 µM (inactive), the GI50 (MDA-N) was 1.57 µM (inactive) and the GI50 (MOLT-4) was 0.237 µM (active). The GI50 (Malme-3M) was 1.26 µM (inactive), the GI50 (NCI-H226) was 0.869 µM (active) and the GI50 (NCI-H23) was 0.794 µM (active). For the same compound, the GI50 (NCI-H460) was 0.358 µM (active), the GI50 (NCI-H522) was 0.271 µM (active) and the GI50 (NCI/ADR-RES) was 2.13 µM (inactive). For the same compound, the GI50 (OVCAR-3) was 0.522 µM (active), the GI50 (OVCAR-4) was 0.566 µM (active) and the GI50 (OVCAR-5) was 0.798 µM (active). For the same compound, the GI50 (OVCAR-8) was 0.518 µM (active), the GI50 (PC-3) was 1.06 µM (active) and the GI50 (RPMI-8226) was 0.217 µM (active). The GI50 (RXF 393) was 1.15 µM (inactive), the GI50 (SF-268) was 0.593 µM (active) and the GI50 (SF-295) was 0.693 µM (active). For the same compound, the GI50 (SF-539) was 1.01 µM (active), the GI50 (SK-MEL-28) was 1.51 µM (inactive) and the GI50 (SK-MEL-2) was 3.88 µM (inactive). For the same compound, the GI50 (SK-MEL-5) was 2.27 µM (inactive), the GI50 (SK-OV-3) was 1.34 µM (inactive) and the GI50 (SN12C) was 0.448 µM (active). The GI50 (SNB-19) was 0.716 µM (active), the GI50 (SNB-75) was 1.53 µM (inactive) and the GI50 (SR) was 0.209 µM (active). For the same compound, the GI50 (SW-620) was 0.321 µM (active), the GI50 (T47D) was 0.865 µM (active) and the GI50 (TK-10) was 0.635 µM (active). For the same compound, the GI50 (U-251) was 0.863 µM (active), the GI50 (UACC-257) was 3.85 µM (inactive) and the GI50 (UACC-62) was 0.942 µM (active). The GI50 (UO-31) was 0.979 µM (active).
In the case of `CC(NC(=O)C(Cc1ccc(OC(=O)c2ccccc2)cc1)NC(=O)OC(C)(C)C)C(=O)NCC(=O)NC(Cc1ccccc1)NC(=O)OCc1ccccc1` (stereo not given), the GI50 (786-0) was > 100 µM (inactive), the GI50 (A498) was 28.5 µM (inactive) and the GI50 (A549) was > 100 µM (inactive). For the same compound, the GI50 (ACHN) was > 100 µM (inactive), the GI50 (BT-549) was > 100 µM (inactive) and the GI50 (CAKI-1) was > 100 µM (inactive). For the same compound, the GI50 (COLO 205) was > 100 µM (inactive), the GI50 (DU-145) was > 100 µM (inactive) and the GI50 (EKVX) was > 100 µM (inactive). The GI50 (HCT-116) was > 100 µM (inactive), the GI50 (HCT-15) was over 100 µM and the GI50 (HL-60) was > 100 µM (inactive). The GI50 (HOP-62) was > 100 µM (inactive), the GI50 (HOP-92) was > 100 µM (inactive) and the GI50 (HT-29) was > 100 µM (inactive). The GI50 (Hs-578T) was 59.8 µM (inactive), the GI50 (IGROV-1) was > 100 µM (inactive) and the GI50 (K562) was > 100 µM (inactive). The GI50 (KM12) was > 100 µM (inactive), the GI50 (LOX IMVI) was > 100 µM (inactive) and the GI50 (M14) was > 100 µM (inactive). For the same compound, the GI50 (MCF7) was > 100 µM (inactive), the GI50 (MDA-MB-231) was > 100 µM (inactive) and the GI50 (MDA-MB-435) was > 100 µM (inactive). The GI50 (MDA-N) was > 100 µM (inactive), the GI50 (MOLT-4) was 62.7 µM (inactive) and the GI50 (Malme-3M) was > 100 µM (inactive). For the same compound, the GI50 (NCI-H226) was > 100 µM (inactive), the GI50 (NCI-H23) was > 100 µM (inactive) and the GI50 (NCI-H460) was > 100 µM (inactive). For the same compound, the GI50 (NCI-H522) was > 100 µM (inactive), the GI50 (NCI/ADR-RES) was > 10 µM (inactive) and the GI50 (OVCAR-3) was > 100 µM (inactive). The GI50 (OVCAR-4) was 15.8 µM (inactive), the GI50 (OVCAR-5) was > 100 µM (inactive) and the GI50 (OVCAR-8) was > 100 µM (inactive). For the same compound, the GI50 (PC-3) was > 100 µM (inactive), the GI50 (RPMI-8226) was 50.6 µM (inactive) and the GI50 (RXF 393) was > 100 µM (inactive). For the same compound, the GI50 (SF-268) was > 100 µM (inactive), the GI50 (SF-295) was > 100 µM (inactive) and the GI50 (SF-539) was > 100 µM (inactive). For the same compound, the GI50 (SK-MEL-28) was > 100 µM (inactive), the GI50 (SK-MEL-5) was 71.6 µM (inactive) and the GI50 (SK-OV-3) was > 100 µM (inactive). The GI50 (SN12C) was > 100 µM (inactive), the GI50 (SNB-19) was > 100 µM (inactive) and the GI50 (SNB-75) was > 100 µM (inactive). For the same compound, the GI50 (SR) was 87.5 µM (inactive), the GI50 (SW-620) was > 100 µM (inactive) and the GI50 (T47D) was > 100 µM (inactive). The GI50 (TK-10) was > 100 µM (inactive), the GI50 (U-251) was > 100 µM (inactive) and the GI50 (UACC-62) was > 100 µM (inactive). The GI50 (UO-31) was > 100 µM (inactive).
`Cc1cc(=O)[nH]c2cc(NC(=O)C(CCCNC(=N)N)NC(=O)OCc3ccccc3)ccc12` (stereo not given) was tested, and the GI50 (786-0) was > 100 µM (inactive), the GI50 (A498) was > 100 µM (inactive) and the GI50 (A549) was > 100 µM (inactive). For the same compound, the GI50 (ACHN) was > 100 µM (inactive), the GI50 (BT-549) was > 100 µM (inactive) and the GI50 (CAKI-1) was > 100 µM (inactive). For the same compound, the GI50 (CCRF-CEM) was > 100 µM (inactive), the GI50 (COLO 205) was > 100 µM (inactive) and the GI50 (DU-145) was > 100 µM (inactive). The GI50 (EKVX) was > 100 µM (inactive), the GI50 (HCC 2998) was > 100 µM (inactive) and the GI50 (HCT-116) was > 100 µM (inactive). The GI50 (HCT-15) was over 100 µM, the GI50 (HL-60) was > 100 µM (inactive) and the GI50 (HOP-62) was > 100 µM (inactive). The GI50 (HOP-92) was 78.5 µM (inactive), the GI50 (HT-29) was > 100 µM (inactive) and the GI50 (Hs-578T) was > 100 µM (inactive). The GI50 (IGROV-1) was > 100 µM (inactive), the GI50 (K562) was > 100 µM (inactive) and the GI50 (KM12) was > 100 µM (inactive). For the same compound, the GI50 (LOX IMVI) was > 100 µM (inactive), the GI50 (M14) was > 100 µM (inactive) and the GI50 (MCF7) was > 100 µM (inactive). For the same compound, the GI50 (MDA-MB-231) was > 100 µM (inactive), the GI50 (MDA-MB-435) was > 100 µM (inactive) and the GI50 (MDA-N) was > 100 µM (inactive). The GI50 (MOLT-4) was > 100 µM (inactive), the GI50 (Malme-3M) was > 100 µM (inactive) and the GI50 (NCI-H226) was > 100 µM (inactive). The GI50 (NCI-H23) was > 100 µM (inactive), the GI50 (NCI-H460) was > 100 µM (inactive) and the GI50 (NCI-H522) was > 100 µM (inactive). The GI50 (NCI/ADR-RES) was > 100 µM (inactive), the GI50 (OVCAR-3) was > 100 µM (inactive) and the GI50 (OVCAR-4) was > 100 µM (inactive). The GI50 (OVCAR-5) was > 100 µM (inactive), the GI50 (OVCAR-8) was > 100 µM (inactive) and the GI50 (PC-3) was > 100 µM (inactive). The GI50 (SF-268) was > 100 µM (inactive), the GI50 (SF-295) was 48.5 µM (inactive) and the GI50 (SF-539) was > 100 µM (inactive). For the same compound, the GI50 (SK-MEL-28) was > 100 µM (inactive), the GI50 (SK-MEL-2) was > 100 µM (inactive) and the GI50 (SK-MEL-5) was > 100 µM (inactive). For the same compound, the GI50 (SK-OV-3) was 4.28 µM (inactive), the GI50 (SN12C) was > 100 µM (inactive) and the GI50 (SNB-19) was > 100 µM (inactive). The GI50 (SNB-75) was > 100 µM (inactive), the GI50 (SR) was > 100 µM (inactive) and the GI50 (SW-620) was > 100 µM (inactive). The GI50 (T47D) was > 100 µM (inactive), the GI50 (TK-10) was > 100 µM (inactive) and the GI50 (U-251) was > 100 µM (inactive). For the same compound, the GI50 (UACC-257) was > 100 µM (inactive), the GI50 (UACC-62) was > 100 µM (inactive) and the GI50 (UO-31) was > 100 µM (inactive).
